Patent US9498483B2, “2,3,5-trisubstituted thiophene compounds and uses thereof” (priority 2010, dated 2016)

How the values were obtained:
HCV polymerase = biological target: T1, HCV polymerase (Hepatitis C virus genotype 1b, UniProt Q9WMX2); assay: Polymerase assay of Biological Example 1 (IC50 values of Table 3); format: biochemical; details: IC50 values of Table 3, polymerase assay of Biological Example 1; read-out: NS5B-enzyme3
T1 construct: (His)6 (C); made in house; host or cells: XL-1 cells (E. coli, by own knowledge)

[1] = system: HCV replicon I389luc-ubi-neo/NS3-3′/ET in ET (Huh-lucubineo-ET) cells; assay: Replicon assay (Biological Example 2), luciferase readout; format: cell-based; details: Hepatitis C virus
In short: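 EC50 values come from Hill fits of % inhibition of replicon-driven firefly luciferase, relative to no-compound wells. Compounds were serially diluted (10 points, 3-fold, 0.1 nM–50 μM final, 0.5% DMSO) onto ET replicon cells and read after 48 h.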

[2] = ET cells, luciferase activity 48 hours after compound

For `CCC1(CC)CN(c2ccc(S(=O)(=O)N3CC(=O)N(c4cc(-c5ccccc5)sc4C(=O)O)[C@H](C4CCCCC4)C3)cn2)CCO1` [Compound 218, 3-{(R)-2-Cyclohexyl-4-[6-(2,2-diethyl-morpholin-4-yl)-pyridine-3-sulfonyl]-6-oxo-piperazin-1-yl}-5-phenyl-thiophene-2-carboxylic acid], the IC50 (HCV polymerase) was 1 nM and the IC50 [1, 2] was no more than 100 nM.
In the case of `CC(C)(C)C#Cc1cc(N2C(=O)CCCC2C2CCCCC2)c(C(=O)O)s1` (stereo not drawn) [Compound 19, 3-(2-Cyclohexyl-6-oxo-piperidin-1-yl)-5-(3,3-dimethyl-but-1-ynyl)-thiophene-2-carboxylic acid], the IC50 (HCV polymerase) is reported as 15 nM and the IC50 [1, 2] is reported as no more than 100 nM.
In the case of `Cc1occc1-c1ccc(S(=O)(=O)N2CC(=O)N(c3cc(-c4ccccc4)sc3C(=O)O)[C@H](C3CCCCC3)C2)cn1` [Compound 211, 3-{(R)-2-Cyclohexyl-4-[6-(2-methyl-furan-3-yl)-pyridine-3-sulfonyl]-6-oxo-piperazin-1-yl}-5-phenyl-thiophene-2-carboxylic acid], the IC50 (HCV polymerase) is reported as 2 nM and the IC50 ([1]; between 100 nM and 5.0 uM) is reported as 100 to 5000 nM.
In the case of `CC(C)(C)C#Cc1cc(N2C(=O)[C@H](CCCCO)OC[C@H]2C2CCCCC2)c(C(=O)O)s1` [Compound 338, 3-[(2S,5R)-5-Cyclohexyl-2-(4-hydroxy-butyl)-3-oxo-morpholin-4-yl]-5-(3,3-dimethyl-but-1-ynyl)-thiophene-2-carboxylic acid], the IC50 (HCV polymerase) is reported as 31 nM and the IC50 ([1]; between 100 nM and 5.0 uM) is reported as 100 to 5000 nM.
`O=C(O)c1sc(-c2ccccc2)cc1N1C(=O)CN(S(=O)(=O)c2cnc(N3CCCC3)c(Cl)c2)C[C@H]1C1CCCCC1` [Compound 169] showed an IC50 (HCV polymerase) of 3 nM and an IC50 [1, 2] of no more than 100 nM.
`O=C(O)c1sc(-c2ccccc2)cc1N1C(=O)CN(S(=O)(=O)c2ccc(N3CCCCC3)nc2)CC1C1CCCCC1` (stereo not drawn) [Compound 84, 3-[2-Cyclohexyl-6-oxo-4-(3,4,5,6-tetrahydro-2H-[1,2′]bipyridinyl-5′-sulfonyl)-piperazin-1-yl]-5-phenyl-thiophene-2-carboxylic acid] gave an IC50 (HCV polymerase) of 4 nM and an IC50 [1, 2] of no more than 100 nM.
